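Exposure lasted 48 hours, with cells grown in 96-well plates and compounds tested at five concentrations. GI50 = concentration required for 50% inhibition of growth.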 Calls of active or inactive are those of the source. Cut-off read from the data, not from the text of the source: active = GI50 up to about 1.1 µM and inactive = higher.
What was measured:
Test in all cases: NCI-60 cell line screen, 48 h
SK-OV-3 = system: SK-OV-3
HCT-15 = system: HCT-15
A498 = system: A498
HT-29 = system: HT-29
OVCAR-8 = system: OVCAR-8
RPMI-8226 = system: RPMI-8226
SN12C = system: SN12C
KM12 = system: KM12
PC-3 = system: PC-3
MDA-MB-231 = system: MDA-MB-231
M14 = system: M14
MDA-MB-435 = system: MDA-MB-435
NCI-H522 = system: NCI-H522
DU-145 = system: DU-145
ACHN = system: ACHN
OVCAR-3 = system: OVCAR-3
T47D = system: T47D
OVCAR-4 = system: OVCAR-4
SF-295 = system: SF-295
LOX IMVI = system: LOX IMVI
HOP-62 = system: HOP-62
HCC 2998 = system: HCC 2998
HOP-92 = system: HOP-92
HL-60 = system: HL-60
SW-620 = system: SW-620
TK-10 = system: TK-10
MCF7 = system: MCF7
Hs-578T = system: Hs-578T
MOLT-4 = system: MOLT-4
Malme-3M = system: Malme-3M
SF-268 = system: SF-268
UO-31 = system: UO-31
IGROV-1 = system: IGROV-1
COLO 205 = system: COLO 205
BT-549 = system: BT-549
SNB-75 = system: SNB-75
CAKI-1 = system: CAKI-1
U-251 = system: U-251
SK-MEL-2 = system: SK-MEL-2
HCT-116 = system: HCT-116
RXF 393 = system: RXF 393
K562 = system: K562
SK-MEL-28 = system: SK-MEL-28
SK-MEL-5 = system: SK-MEL-5
UACC-257 = system: UACC-257
NCI/ADR-RES = system: NCI/ADR-RES
CCRF-CEM = system: CCRF-CEM
NCI-H226 = system: NCI-H226
A549 = system: A549
EKVX = system: EKVX
SNB-19 = system: SNB-19
786-0 = system: 786-0
SF-539 = system: SF-539
SR = system: SR
UACC-62 = system: UACC-62
NCI-H460 = system: NCI-H460
NCI-H23 = system: NCI-H23
OVCAR-5 = system: OVCAR-5
MDA-N = system: MDA-N

CCSC(=O)/C=C1\CN(C(=O)OC(C)(C)C)C1C(=O)OC(C)(C)C (configuration not stated)
GI50 (SK-OV-3): 13.8 µM (inactive)
GI50 (HCT-15): 1.52 µM
GI50 (A498): 11.2 µM (inactive)
GI50 (HT-29): 4.23 µM (inactive)
GI50 (OVCAR-8): 2.91 µM (inactive)
GI50 (RPMI-8226): 1.87 µM (inactive)
GI50 (SN12C): 1.86 µM (inactive)
GI50 (KM12): 3.38 µM (inactive)
GI50 (PC-3): 4.94 µM (inactive)
GI50 (MDA-MB-231): 4.29 µM (inactive)
GI50 (M14): 1.77 µM (inactive)
GI50 (MDA-MB-435): 2.74 µM (inactive)
GI50 (NCI-H522): 2.49 µM (inactive)
GI50 (DU-145): 4.95 µM (inactive)
GI50 (ACHN): 3.63 µM (inactive)
GI50 (OVCAR-3): 2.42 µM (inactive)
GI50 (T47D): 4.34 µM (inactive)
GI50 (OVCAR-4): 2.38 µM (inactive)
GI50 (SF-295): 12.1 µM (inactive)
GI50 (LOX IMVI): 1.45 µM (inactive)
GI50 (HOP-62): 14.1 µM (inactive)
GI50 (HCC 2998): 5.38 µM (inactive)
GI50 (HOP-92): 2.59 µM (inactive)
GI50 (HL-60): 1.87 µM (inactive)
GI50 (SW-620): 2.07 µM (inactive)
GI50 (TK-10): 2.59 µM (inactive)
GI50 (MCF7): 2.38 µM (inactive)
GI50 (Hs-578T): 4.17 µM (inactive)
GI50 (MOLT-4): 1.71 µM (inactive)
GI50 (Malme-3M): 1.95 µM (inactive)
GI50 (SF-268): 4.32 µM (inactive)
GI50 (UO-31): 5.41 µM (inactive)
GI50 (IGROV-1): 4.28 µM (inactive)
GI50 (COLO 205): 2.02 µM (inactive)
GI50 (BT-549): 10.3 µM (inactive)
GI50 (SNB-75): 2.59 µM (inactive)
GI50 (CAKI-1): 6.56 µM (inactive)
GI50 (U-251): 6.19 µM (inactive)
GI50 (SK-MEL-2): 6.59 µM (inactive)
GI50 (HCT-116): 1.55 µM (inactive)
GI50 (RXF 393): 1.91 µM (inactive)
GI50 (K562): 1.91 µM (inactive)
GI50 (SK-MEL-28): 1.86 µM (inactive)
GI50 (SK-MEL-5): 3.37 µM (inactive)
GI50 (UACC-257): 4.21 µM (inactive)
GI50 (NCI/ADR-RES): 2.74 µM (inactive)
GI50 (CCRF-CEM): 1.27 µM (inactive)
GI50 (NCI-H226): 12.7 µM (inactive)
GI50 (A549): 12.1 µM (inactive)
GI50 (EKVX): 10.5 µM (inactive)
GI50 (SNB-19): 12.1 µM (inactive)
GI50 (786-0): 1.87 µM (inactive)
GI50 (SF-539): 3.03 µM (inactive)
GI50 (SR): 0.684 µM (active)
GI50 (UACC-62): 3.2 µM (inactive)
GI50 (NCI-H460): 7.14 µM (inactive)
GI50 (NCI-H23): 2.6 µM (inactive)
GI50 (OVCAR-5): 6.24 µM (inactive)

Nc1ccc(-c2nc3ccc(F)cc3s2)cc1Cl
GI50 (SK-OV-3): > 100 µM (inactive)
GI50 (HCT-15): > 100 µM
GI50 (MDA-N): > 100 µM (inactive)
GI50 (A498): 0.402 µM (active)
GI50 (HT-29): 52.7 µM (inactive)
GI50 (OVCAR-8): > 65.5 µM (inactive)
GI50 (RPMI-8226): > 100 µM (inactive)
GI50 (SN12C): > 100 µM (inactive)
GI50 (KM12): > 100 µM (inactive)
GI50 (PC-3): > 100 µM (inactive)
GI50 (MDA-MB-231): > 55.3 µM (inactive)
GI50 (M14): > 100 µM (inactive)
GI50 (MDA-MB-435): > 100 µM (inactive)
GI50 (NCI-H522): > 70.5 µM (inactive)
GI50 (DU-145): > 100 µM (inactive)
GI50 (ACHN): > 100 µM (inactive)
GI50 (OVCAR-3): 0.126 µM (active)
GI50 (OVCAR-4): 0.0174 µM (active)
GI50 (SF-295): > 47.1 µM (inactive)
GI50 (LOX IMVI): > 73.1 µM (inactive)
GI50 (HOP-62): 26.9 µM (inactive)
GI50 (HCC 2998): 0.0869 µM (active)
GI50 (HOP-92): 24.9 µM (inactive)
GI50 (SW-620): > 100 µM (inactive)
GI50 (TK-10): < 0.01 µM (active)
GI50 (MCF7): < 0.01 µM (active)
GI50 (Hs-578T): 32.9 µM (inactive)
GI50 (MOLT-4): > 20.4 µM (inactive)
GI50 (Malme-3M): > 100 µM (inactive)
GI50 (SF-268): 35.3 µM (inactive)
GI50 (UO-31): > 100 µM (inactive)
GI50 (IGROV-1): < 0.01 µM (active)
GI50 (COLO 205): > 100 µM (inactive)
GI50 (BT-549): > 70.6 µM (inactive)
GI50 (SNB-75): 37 µM (inactive)
GI50 (CAKI-1): > 78.5 µM (inactive)
GI50 (U-251): > 65.5 µM (inactive)
GI50 (SK-MEL-2): > 84.1 µM (inactive)
GI50 (RXF 393): > 41.5 µM (inactive)
GI50 (K562): > 100 µM (inactive)
GI50 (SK-MEL-28): > 100 µM (inactive)
GI50 (SK-MEL-5): > 100 µM (inactive)
GI50 (UACC-257): > 100 µM (inactive)
GI50 (NCI/ADR-RES): > 100 µM (inactive)
GI50 (CCRF-CEM): 5.57 µM (inactive)
GI50 (NCI-H226): 14.1 µM (inactive)
GI50 (A549): > 100 µM (inactive)
GI50 (EKVX): > 61.9 µM (inactive)
GI50 (SNB-19): > 62.2 µM (inactive)
GI50 (786-0): > 61.1 µM (inactive)
GI50 (SF-539): 53.5 µM (inactive)
GI50 (SR): > 100 µM (inactive)
GI50 (UACC-62): > 69.8 µM (inactive)
GI50 (NCI-H23): > 82 µM (inactive)

Source: ChEMBL document CHEMBL1201862, “PubChem BioAssay data set” (2004)
